# Laboratory results: patent US20240122847A1, “ORAL POLYPEPTIDE FORMULATIONS” (Bhami's Research Laboratory, Pvt. Ltd., priority 2022, published 2024)
# Key:
# [1] = Pharmacokinetics of PTH (1-34) in SD rats, sugar truffle buccal/sublingual vs SC, plasma PTH (1-34) ELISA
# Description: Pharmacokinetic analysis was conducted in female rats weighing 220-250 grams for 2 days. Rats in the oral treatment group was either fasted overnight or fed prior to the test sample administration. All the test animals in the treatment groups were administered with respective test formulation to the pre-designated animals. The animal was restrained and its head was held vertically, the jaws were pulled away, the tongue was gently lifted with a forceps followed by placement of a polypeptide formulation as described herein buccally/sublingually. After placing a polypeptide formulation as described herein, the snout was held together for about 1-2 mins to prevent the chewing of the polypeptide formulation. The time of dosage of each animal was noted. Blood samples were collected at aforementioned time points 0 min, 15 min, 30 min, 1 hour, 2 hours, 4 hours, 8 hours, 12 hours, 24 hours, and 48 hours into an EDTA-blood collection tubes for the separation of plasma to determine PTH (1-34) levels by ELISA. Plasma samples collected at different time points were analyzed by ELISA kit according to Creative Diagnostics protocol. This kit is based on sandwich enzyme-linked immuno-sorbent assay technology. An antibody, anti-PTH (1-34) was pre-coated onto a 96-well plate. Standards, test samples, and biotin-conjugated reagent were added to the wells and incubated. The HRP-conjugated reagent was then added, and the whole plate was incubated. Unbound conjugates were removed using wash buffer at each stage. TMB substrate was used to quantify the HRP enzymatic reaction. After TMB substrate was added, only wells that contain sufficient PTH (1-34) will produce a blue colored product, which then changes to yellow after adding the acidic stop solution. The intensity of the yellow color is proportional to the PTH (1-34) amount bound on the plate. The Optical Density (OD) was measured spectrophotometrically at 450 nm in a microplate reader, from which the concentration of PTH (1-34) can be calculated.
# PTH (1-34) was analyzed in plasma using a specific enzyme linked immunosorbent assay (ELISA). Pharmacokinetic endpoints were determined using noncompartmental methods using PK Solutions software. AUC was approximated using the trapezoidal rule on the observed concentrations. C max for each PTH (1-34) dose was derived as the maximum of all valid concentrations, and t max was then determined as the corresponding time point to C max. The terminal elimination rate constant (λz) was estimated by log-linear regression on the terminal part of the concentration-time curve, and t ½ was then calculated as t ½=ln 2/λz.
# [2] = tested on: serum calcium, serum phosphorous and alkaline phosphatase; test: Pharmacodynamics of PTH in Yorkshire pigs; type: in vivo; parameters: sCa / sP / sALP: unit not given here; conditions: Yorkshire pigs
# Description: The serum calcium and serum phosphorous were estimated using Siemen's […] 744 Electrolyte Analyzer and for serum ALP Siemen's Dimension Expand Plus was used.
# The pharmacodynamics data in subcutaneous and buccal/Sublingual groups are shown in Tables 21 and 22 and in FIGS. 63 and 64.
# [3] = female, SD, rat, plasma, 0.49 mg
# [4] = female, SD, rat, plasma, sc, 0.04 mg
# [5] = Buccal/Sublingual Sugar Truffle Shell (0.49 mg), 0 h
# [6] = Buccal/Sublingual Sugar Truffle Shell (0.49 mg), 0.08 h
# [7] = Buccal/Sublingual Sugar Truffle Shell (0.49 mg), 0.5 h
# [8] = Buccal/Sublingual Sugar Truffle Shell (0.49 mg), 1 h
# [9] = Buccal/Sublingual Sugar Truffle Shell (0.49 mg), 2 h
# [10] = Buccal/Sublingual Sugar Truffle Shell (0.49 mg), 4 h
# [11] = Buccal/Sublingual Sugar Truffle Shell (0.49 mg), 8 h
# [12] = Buccal/Sublingual Sugar Truffle Shell (0.49 mg), 24 h
smiles,measurement,setting,value
CC[C@H](C)[C@H](NC(=O)[C@H](CCC(=O)O)NC(=O)[C@H](CO)NC(=O)[C@@H](NC(=O)[C@@H](N)CO)C(C)C)C(=O)N[C@@H](CCC(N)=O)C(=O)N[C@@H](CC(C)C)C(=O)N[C@@H](CCSC)C(=O)N[C@@H](Cc1cnc[nH]1)C(=O)N[C@@H](CC(N)=O)C(=O)N[C@@H](CC(C)C)C(=O)NCC(=O)N[C@@H](CCCCN)C(=O)N[C@@H](Cc1cnc[nH]1)C(=O)N[C@@H](CC(C)C)C(=O)N[C@@H](CC(N)=O)C(=O)N[C@@H](CO)C(=O)N[C@@H](CCSC)C(=O)N[C@@H](CCC(=O)O)C(=O)N[C@@H](CCCN=C(N)N)C(=O)N[C@H](C(=O)N[C@@H](CCC(=O)O)C(=O)N[C@@H](Cc1c[nH]c2ccccc12)C(=O)N[C@@H](CC(C)C)C(=O)N[C@@H](CCCN=C(N)N)C(=O)N[C@@H](CCCCN)C(=O)N[C@@H](CCCCN)C(=O)N[C@@H](CC(C)C)C(=O)N[C@@H](CCC(N)=O)C(=O)N[C@@H](CC(=O)O)C(=O)N[C@H](C(=O)N[C@@H](Cc1cnc[nH]1)C(=O)N[C@@H](CC(N)=O)C(=O)N[C@@H](Cc1ccccc1)C(=O)O)C(C)C)C(C)C [PTH (1-34)],level at 5 min,[1]; [3],3510 pg/mL
same,level at 0.5 h,[1]; [3],3070 pg/mL
same,level at 1 h,[1]; [3],2870 pg/mL
same,level at 2 h,[1]; [3],1630 pg/mL
same,level at 4 h,[1]; [3],214 pg/mL
same,level at 8 h,[1]; [3],33.7 pg/mL
same,level at 24 h,[1]; [3],6.02 pg/mL
same,bioavailability,"[1]; female, SD, rat, plasma, other: buccal/sublingual, 0.49 mg",7%
same,MRT last,[1]; [4],2.02 h
same,Tmax,[1]; [4],0.5 h
same,half-life,[1]; [4],4.46 h
same,level at 0 h,[1]; [4],0.002 pg/mL
same,level at 5 min,[1]; [4],403 pg/mL
same,level at 0.5 h,[1]; [4],3400 pg/mL
same,level at 1 h,[1]; [4],3270 pg/mL
same,level at 2 h,[1]; [4],2930 pg/mL
same,level at 4 h,[1]; [4],167 pg/mL
same,level at 8 h,[1]; [4],50.9 pg/mL
same,level at 24 h,[1]; [4],6.2 pg/mL
same,AUC(0-inf),"[1]; female, SD, rat, plasma, sc, 0.04 mg, AUC 0-inf_obs, rats",9.61 ng·h/mL
same,AUC(0-inf),"[1]; female, SD, rat, plasma, sc, 0.04 mg, AUC 0-inf_pred, rats",9.61 ng·h/mL
same,AUC 0-t,"[1]; female, SD, rat, plasma, sc, 0.04 mg, AUC 0-t, rats",9.57 ng·h/mL
same,AUC(t-inf),"[1]; female, SD, rat, plasma, sc, 0.04 mg, AUC t-inf_obs, rats",0.0399 ng·h/mL
same,AUC(t-inf),"[1]; female, SD, rat, plasma, sc, 0.04 mg, AUC t-inf_pred, rats",0.0375 ng·h/mL
same,MRT inf,"[1]; female, SD, rat, plasma, sc, 0.04 mg, MRT 0-inf_obs, rats",2.13 h
same,MRT inf,"[1]; female, SD, rat, plasma, sc, 0.04 mg, MRT 0-inf_pred, rats",2.13 h
same,Mean PTH (1-34) levels,"[1]; rats, GII - Buccal/sublingual 0.49 mg, 0 min",0.000 pg/mL
same,AUMC 0-inf_obs,"[1]; rats, SC, 0.04 mg",20516.940 pg/mL*h^2
same,AUMC 0-inf_pred,"[1]; rats, SC, 0.04 mg",20442.395 pg/mL*h^2
same,AUMC 0-t,"[1]; rats, SC, 0.04 mg",19300.931 pg/mL*h^2
same,AUMC 0-t/0-inf_obs,"[1]; rats, SC, 0.04 mg",0.941
same,AUMC 0-t/0-inf_pred,"[1]; rats, SC, 0.04 mg",0.944
same,AUMC t-inf_obs,"[1]; rats, SC, 0.04 mg",1216.009 pg/mL*h^2
same,AUMC t-inf_pred,"[1]; rats, SC, 0.04 mg",1141.464 pg/mL*h^2
same,Clast_obs,"[1]; rats, SC, 0.04 mg",6.201 pg/mL
same,Clast_pred,"[1]; rats, SC, 0.04 mg",5.821 pg/mL
same,Cmax,"[1]; rats, SC, 0.04 mg",3401.092 pg/mL
same,Lambda_z,"[1]; rats, SC, 0.04 mg",0.155 h⁻¹
same,Tlag,"[1]; rats, SC, 0.04 mg",0.000 h
same,Tlast,"[1]; rats, SC, 0.04 mg",24.000 h
same,sALP,[2]; [5],170.55 ± 12.85
same,sCa,[2]; [5],9.46 ± 0.4
same,sP,[2]; [5],10.52 ± 0.33
same,sALP,[2]; [6],193.5 ± 9.32
same,sCa,[2]; [6],10.05 ± 0.17
same,sP,[2]; [6],9.87 ± 0.15
same,sALP,[2]; [7],170.25 ± 10.81
same,sCa,[2]; [7],9.77 ± 0.12
same,sP,[2]; [7],8.82 ± 0.17
same,sALP,[2]; [8],148.5 ± 11.9
same,sCa,[2]; [8],9.62 ± 0.04
same,sP,[2]; [8],8.3 ± 0.16
same,sALP,[2]; [9],137.75 ± 9.67
same,sCa,[2]; [9],9.25 ± 0.26
same,sP,[2]; [9],9.1 ± 0.49
same,sALP,[2]; [10],131 ± 11.91
same,sCa,[2]; [10],9.3 ± 0.34
same,sP,[2]; [10],9 ± 0.11
same,sALP,[2]; [11],128 ± 14.02
same,sCa,[2]; [11],9.17 ± 0.26
same,sP,[2]; [11],8.97 ± 0.17
same,sALP,[2]; [12],126.5 ± 15.28
same,sCa,[2]; [12],9 ± 0.18
same,sP,[2]; [12],9.02 ± 0.14
same,sALP,"[2]; Subcutaneous (40 μg), 0 h",116.5 ± 6.36
same,sCa,"[2]; Subcutaneous (40 μg), 0 h",9.35 ± 0.63
same,sP,"[2]; Subcutaneous (40 μg), 0 h",10.7 ± 0.14
same,sALP,"[2]; Subcutaneous (40 μg), 0.08 h",119.5 ± 2.12
